Assays:
[1] = molecular target: human fibroblast stromelysin (Homo sapiens, UniProt P08254); assay: Assay for inhibition of stromelysin (fluorescein-labeled casein substrate); assay type: biochemical; conditions: plasmin-activated human fibroblast prostromelysin, 37°C, 2 hours, pH 7.8; read-out: Inhibition of MMP-3
TNF-α Convertase = TNF-α Convertase (Homo sapiens, UniProt P78536); assay: Assay for inhibition of TNF-α production in LPS-stimulated, PMA-differentiated U937 cells
Description: Human monocytic leukemia cell line U937 (human histiocytic lymphoma cell line U937) cells were cultured in RPMI 1640 (Nissui Pharmaceutical Co., Ltd., Japan) supplemented with 5% fetal calf serum (FCS; IBL, Japan) in an incubator at 37°C under 5% CO2, then transferred to multiplates at a density of 1 x 10^6 cells/1 ml/well, and incubated overnight in the presence of 10^-7 M phorbol 12-myristate 13-acetate (Wako Pure Chemical Industries, Ltd., Japan) to form differentiated macrophage-like cells. To the resultant cells was added E. coli O127:B8 lipopolysaccaride (LPS, 0.1 µg/ml; Sigma) alone or along with each compound of the present invention, and the treated cells were then incubated for 6 hours in an incubator under 5% CO2 at 37°C. After the incubation, the cultures were collected and centrifuged at 3000 rpm for 10 minutes to give supernatants which were diluted with purified water and then assayed using a TNF-α assay kit, Genzyme (Table 3).

[2] = Assay for Oral Absorption in Rat (plasma level by MMP-3 inhibition bioassay); conditions: rat, po, 100 mg/kg; for AUC: male, Lewis
Description: Each compound of the present invention was dissolved in distilled water for injection and orally administered to rats (Lewis strain line, male, body weight: about 200 g) at a dose of 100mg/kg. From 30 minutes to 4 hours after the administration, a series of blood chronologically collected from rat fundus oculi were centrifuged (3000rpm for 10 minutes at 4°C) to give plasma samples. Each plasma sample (200 µl) was filtered through an ultrafiltration membrane by centrifugation at 1500 x G for 3 minutes using a micropartition UF unit (Centrifree-MPS-3: 30,000 MW cut-off, Amicon Corp., Beverly, MA). […] The reaction was stopped by adding 900 µl of 3% aqueous acetic acid to the reaction mixture. The fluorescence of the resulting solution was read using an excitation wavelength of 325 nm and an emission wavelength of 393 nm. The concentration of each test compound in rat plasma samples was calculated using a standard curve which was prepared based on a variety of doses.

[3] = molecular target: T1, human fibroblast collagenase (Homo sapiens, UniProt P03956); assay: Assay for inhibition of collagenase (fluorescein-labeled bovine type I collagen substrate); assay type: biochemical; conditions: activated human fibroblast procollagenase, 35°C, 2 hours, pH 7.5; read-out: Inhibition of MMP-1
T1 sequence (P03956 100-469): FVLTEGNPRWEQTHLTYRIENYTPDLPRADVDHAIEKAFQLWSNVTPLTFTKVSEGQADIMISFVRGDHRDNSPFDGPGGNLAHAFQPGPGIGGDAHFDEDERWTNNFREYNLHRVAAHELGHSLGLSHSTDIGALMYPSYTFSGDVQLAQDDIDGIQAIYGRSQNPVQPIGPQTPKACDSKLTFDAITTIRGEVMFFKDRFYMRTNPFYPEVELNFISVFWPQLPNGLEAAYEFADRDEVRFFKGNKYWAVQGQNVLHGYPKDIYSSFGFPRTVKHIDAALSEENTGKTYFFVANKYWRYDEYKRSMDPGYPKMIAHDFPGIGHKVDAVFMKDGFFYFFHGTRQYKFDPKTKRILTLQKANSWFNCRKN
Description: Described below are assays for biological activities of the compounds according to the present invention, formulations, dosage forms and dosage levels thereof, and miscellaneous matters. The efficacy of the compounds represented by the formula (I) according to the present invention as inhibitors of human fibroblast collagenase (metalloproteinase involved in the breakdown of tissues) is determined by a procedure based on the method of Y. Murawaki et al., Journal of Hepatology, 18, p328-334 (1993). The efficacy of the compounds (I) of this invention as inhibitors of human fibroblast stromelysin is determined by a procedure based on the method of S. S. Twining, Anal. Biochem., 143, p30 (1984). The assay results obtained are shown hereinbelow, together with biological examples which illustrate embodiments of the assay protocols.
The efficacy of compounds of the present invention to act as inhibitors of human fibroblast collagenase was determined by the procedure of Y. Murawaki et al. (Journal of Hepatology, 18, p.328-334, 1993), compared with a reference compound.
Procollagenase was activated by incubation with 2 mM 4-aminophenylmercuric acetate (APMA) at 35°C for 2 hours. The inhibition was assayed using, as a substrate, fluorescein-labeled bovine type I collagen. To a solution of the substrate (0.5 mg/ml) in a 50 mM Tris-HCl buffer, pH 7.5, containing 0.4M aqueous sodium chloride and 10 mM aqueous […] was added the activated collagenase. The resultant solution was incubated at 35°C for 2 hours. The digestion of the substrate with the enzyme was stopped by addition of 80 mM o-phenanthroline, followed by addition of a porcine elastase solution formed by dissolving 25 µg/ml porcine elastase in the aforementioned Tris-HCl buffer. The mixture was incubated at 37°C for 10 minutes. To the resulting solution was added 70% ethanol, and a 170 mM Tris-HCl buffer, pH 9.5, containing 0.67M aqueous sodium chloride. Undigested substrates were precipitated by centrifugation at 3000 x g for 20 minutes. The supernatant was collected and the fluorescence was read using an excitation wavelength of 495 nm and an emission wavelength of 520 nm. The inhibitory potency of the compounds was calculated. […] The resulting assay data for representative examples are shown in Table 1, compared with the reference compound. […]

Chain of TNF-α Convertase (P78536 215-824): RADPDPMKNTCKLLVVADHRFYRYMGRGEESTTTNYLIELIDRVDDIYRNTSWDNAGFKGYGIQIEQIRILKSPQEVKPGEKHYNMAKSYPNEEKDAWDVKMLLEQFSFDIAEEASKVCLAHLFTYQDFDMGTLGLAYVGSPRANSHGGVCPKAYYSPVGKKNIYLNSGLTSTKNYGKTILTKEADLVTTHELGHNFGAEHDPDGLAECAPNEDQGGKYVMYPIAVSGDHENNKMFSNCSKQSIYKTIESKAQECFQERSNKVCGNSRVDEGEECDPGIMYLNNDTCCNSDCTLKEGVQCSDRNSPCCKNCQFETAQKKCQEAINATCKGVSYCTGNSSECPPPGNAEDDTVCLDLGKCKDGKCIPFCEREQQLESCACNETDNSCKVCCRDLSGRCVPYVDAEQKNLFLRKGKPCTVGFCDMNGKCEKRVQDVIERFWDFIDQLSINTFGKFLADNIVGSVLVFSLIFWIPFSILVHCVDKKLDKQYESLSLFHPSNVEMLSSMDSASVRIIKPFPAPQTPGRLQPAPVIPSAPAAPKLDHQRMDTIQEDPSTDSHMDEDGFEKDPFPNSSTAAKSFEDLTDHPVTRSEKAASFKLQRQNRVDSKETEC
Chain of human fibroblast stromelysin (P08254 100-477): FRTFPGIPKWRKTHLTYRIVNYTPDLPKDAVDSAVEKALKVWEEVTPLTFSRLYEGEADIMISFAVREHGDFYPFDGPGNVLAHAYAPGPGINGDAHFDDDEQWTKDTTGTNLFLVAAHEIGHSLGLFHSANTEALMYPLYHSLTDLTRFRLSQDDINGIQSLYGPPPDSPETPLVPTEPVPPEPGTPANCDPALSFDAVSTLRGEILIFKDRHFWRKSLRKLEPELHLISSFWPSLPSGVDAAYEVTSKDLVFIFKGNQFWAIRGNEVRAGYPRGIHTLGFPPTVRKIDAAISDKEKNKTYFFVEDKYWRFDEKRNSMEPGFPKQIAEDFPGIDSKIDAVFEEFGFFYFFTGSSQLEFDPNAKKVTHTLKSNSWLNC

Work on CNC(=O)C(Cc1ccc(CNC(C)=N)cc1)NC(=O)C(CC(C)C)C(C)C(=O)NO (single isomer, unassigned) [Compound No. 41, N^a-[4-(Hydroxyamino)-2(R)-isobutyl-3(R or S)-methylsuccinyl]-4'-acetimidoyliminomethyl-L-phenylalanine N-methylamide · 1 acetate] yielded an IC50 [1] of 18 nM, an IC50 (TNF-α Convertase) of 1010 nM and an AUC [2] of 3130 ng·h/mL.
Compound CNC(=O)C(CCCCNC(C)=N)NC(=O)C(CC(C)C)C(C)C(=O)NO [Compound No. 22, N^a-[4-(Hydroxyamino)-2(R)-isobutyl-3(RS)-methylsuccinyl]-N^e-acetimidoyl-L-lysine N-methylamide · 1 acetate] has an IC50 (TNF-α Convertase) of 2080 nM and an AUC at 4 h [2] of 9130 ng·h/mL.
Work on CNC(=O)C(CCCN)NC(=O)C(CC(C)C)C(CCCc1ccc(NC(=N)N)cc1)C(=O)NO [Compound No. 46, N^a-[4-(Hydroxyamino)-2(R)-isobutyl-3(RS)-[3-(4'-guanidinophenyl)propyl]succinyl]-L-ornithine-N-methylamide · 2 acetate] yielded an IC50 [3] of 15 nM, an IC50 [1] of 42 nM and an IC50 (TNF-α Convertase) of 460 nM. For the same compound, the AUC [2] was 3380 ng·h/mL.

Reference: patent EP1038864A1, “NOVEL METALLOPROTEINASE INHIBITORS” (FUJI YAKUHIN KOGYO KABUSHIKI KAISHA, priority 1997, dated 1999)
